From PubChem BioAssay AID212 (DTP/NCI, 2004)
Several values for one entry are separate records, joined by “and”; a condition that tells them apart may be missing. Equal values may be shown once. Records with an inconclusive call do not appear.

Tested on: BDF1 mice, colon carcinoma 38 sc, T/C %
Test: NCI In Vivo Anticancer Drug Screen. Data for tumor model Colon Carcinoma 38 (subcutaneous) in B6D2F1 (BDF1) mice
Conditions: endpoint: median tumor weight (est.), higher = larger tumour
Procedure, shortened: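 T/C readout: treated group (T) measurement over vehicle control group (C) measurement. Endpoint is survival or tumor size in mice bearing a transplanted tumor.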

[1] = dose: 3.12 mg/kg/injection, schedule: Q07DX002 (ip), vehicle: saline
[2] = dose: 6.25 mg/kg/injection, schedule: Q07DX002 (ip), vehicle: saline
[3] = dose: 12.5 mg/kg/injection, schedule: Q07DX002 (ip), vehicle: saline
[4] = dose: 200.0 mg/kg/injection, schedule: Q07DX002 (ip), vehicle: saline
[5] = dose: 25.0 mg/kg/injection, schedule: Q07DX002 (ip), vehicle: saline with Tween-80
[6] = dose: 50.0 mg/kg/injection, schedule: Q07DX002 (ip), vehicle: saline with Tween-80
[7] = dose: 100.0 mg/kg/injection, schedule: Q07DX002 (ip), vehicle: saline with Tween-80
[8] = dose: 25.0 mg/kg/injection, schedule: Q07DX002 (ip), vehicle: saline
[9] = dose: 50.0 mg/kg/injection, schedule: Q07DX002 (ip), vehicle: saline
[10] = dose: 100.0 mg/kg/injection, schedule: Q07DX002 (ip), vehicle: saline

C/C=C(\C)c1cc(=O)c2c(C)cc3c(c2o1)C(=O)c1c(O)c(C2CC(C)(N(C)C)C(OC(C)=O)C(C)O2)cc(C2CC(N(C)C)C(O)C(C)O2)c1C3=O (stereo not drawn)
T/C (dose: 0.31 mg/kg/injection, schedule: Q07DX002 (ip), vehicle: saline): 78 % of control | T/C (dose: 0.31 mg/kg/injection, schedule: Q07DX002 (ip), vehicle: suspension in saline): 84 % of control | T/C (dose: 0.62 mg/kg/injection, schedule: Q07DX002 (ip), vehicle: saline): 75 % of control and 92 % of control | T/C (dose: 0.62 mg/kg/injection, schedule: Q07DX002 (ip), vehicle: suspension in saline): 97 % of control | T/C (dose: 1.25 mg/kg/injection, schedule: Q07DX002 (ip), vehicle: saline): 97 % of control | T/C (dose: 1.25 mg/kg/injection, schedule: Q07DX002 (ip), vehicle: suspension in saline): 81 % of control | T/C (dose: 2.5 mg/kg/injection, schedule: Q07DX002 (ip), vehicle: saline): 116 % of control and 105 % of control | T/C (dose: 2.5 mg/kg/injection, schedule: Q07DX002 (ip), vehicle: suspension in saline): 90 % of control | T/C (dose: 5.0 mg/kg/injection, schedule: Q07DX002 (ip), vehicle: saline): 86 % of control | T/C (dose: 5.0 mg/kg/injection, schedule: Q07DX002 (ip), vehicle: suspension in saline): 97 % of control | T/C (dose: 10.0 mg/kg/injection, schedule: Q07DX002 (ip), vehicle: saline): 97 % of control | T/C (dose: 10.0 mg/kg/injection, schedule: Q07DX002 (ip), vehicle: suspension in saline): 120 % of control

CC1=C(O)C(=O)[C@@H]2O[C@@H]2C1=O
T/C [1]: 90 % of control | T/C [2]: 106 % of control | T/C [3]: 71 % of control

CC(=O)Oc1c(C)[nH]ccc1=O
T/C [2]: 107 % of control | T/C [4]: 107 % of control

CC1(C)OC1CS(=O)c1ccccc1 (stereo not drawn)
T/C [5]: 110 % of control | T/C [6]: 105 % of control | T/C [7]: 92 % of control | T/C (dose: 200.0 mg/kg/injection, schedule: Q07DX002 (ip), vehicle: saline with Tween-80): 86 % of control | T/C (dose: 400.0 mg/kg/injection, schedule: Q07DX002 (ip), vehicle: saline with Tween-80): 105 % of control | T/C (dose: 800.0 mg/kg/injection, schedule: Q07DX002 (ip), vehicle: saline with Tween-80): 76 % of control

O=C(O)C1CC1.[Ag]
T/C (dose: 6.25 mg/kg/injection, schedule: Q07DX002 (ip), vehicle: distilled water + Tween-80): 119 % of control | T/C (dose: 6.25 mg/kg/injection, schedule: Q07DX002 (ip), vehicle: water): 108 % of control | T/C (dose: 12.5 mg/kg/injection, schedule: Q07DX002 (ip), vehicle: water): 84 % of control | T/C (dose: 25.0 mg/kg/injection, schedule: Q07DX002 (ip), vehicle: distilled water + Tween-80): 87 % of control

O=c1n(CC2CO2)c(=O)n(CC2CO2)n1CC1CO1 (stereo not drawn)
T/C [3]: 25 % of control | T/C [8]: 25 % of control | T/C [9]: 18 % of control

N#Cc1c(N)[nH]c2ccc(Sc3ccccc3)cc12
T/C (dose: 12.5 mg/kg/injection, schedule: Q07DX002 (ip), vehicle: saline with Tween-80): 78 % of control | T/C [5]: 97 % of control | T/C [6]: 63 % of control | T/C [7]: 73 % of control

Cc1c2cc[n+](CCN3CCCCC3)cc2c(C)c2c1[nH]c1ccc(O)cc12
T/C [1]: 36 % of control | T/C (dose: 3.12 mg/kg/injection, schedule: Q07DX002 (ip), vehicle: suspension in saline): 100 % of control | T/C [2]: 53 % of control and 61 % of control | T/C (dose: 6.25 mg/kg/injection, schedule: Q07DX002 (ip), vehicle: suspension in saline): 104 % of control | T/C (dose: 12.5 mg/kg/injection, schedule: Q07DX002 (ip), vehicle: suspension in saline): 86 % of control | T/C [8]: 39 % of control and 64 % of control | T/C (dose: 25.0 mg/kg/injection, schedule: Q07DX002 (ip), vehicle: suspension in saline): 69 % of control | T/C (dose: 50.0 mg/kg/injection, schedule: Q07DX002 (ip), vehicle: suspension in saline): 39 % of control | T/C [10]: 36 % of control and 47 % of control

CCC(=O)O[C@H]1CC[C@H]2[C@@H]3CCC4=CC(=O)CC[C@]4(C)[C@H]3CC[C@]12C
T/C (dose: 20.0 mg/kg/injection, schedule: Q07DX002 (ip), vehicle: Klucel (hydroxypropylcellulose) (HPC)): 72 % of control | T/C (dose: 40.0 mg/kg/injection, schedule: Q07DX002 (ip), vehicle: Klucel (hydroxypropylcellulose) (HPC)): 71 % of control and 81 % of control | T/C (dose: 40.0 mg/kg/injection, schedule: Q07DX002 (ip), vehicle: suspension in saline): 60 % of control | T/C (dose: 80.0 mg/kg/injection, schedule: Q07DX002 (ip), vehicle: suspension in saline): 93 % of control | T/C (dose: 160.0 mg/kg/injection, schedule: Q07DX002 (ip), vehicle: suspension in saline): 86 % of control | T/C (dose: 320.0 mg/kg/injection, schedule: Q07DX002 (ip), vehicle: suspension in saline): 99 % of control | T/C (dose: 640.0 mg/kg/injection, schedule: Q07DX002 (ip), vehicle: Klucel (hydroxypropylcellulose) (HPC)): 89 % of control and 100 % of control and 101 % of control | T/C (dose: 640.0 mg/kg/injection, schedule: Q07DX002 (ip), vehicle: suspension in saline): 86 % of control

C1CN2CN3CCN(CN1C3)C2
T/C [8]: 111 % of control | T/C [10]: 166 % of control | T/C [4]: 115 % of control

Nc1ccn(C2CC(O)C(CO)O2)c(=O)n1 (stereo not drawn)
T/C (dose: 42.19 mg/kg/injection, schedule: Q07DX002 (ip), vehicle: water): 124 % of control | T/C (dose: 84.38 mg/kg/injection, schedule: Q07DX002 (ip), vehicle: water): 79 % of control | T/C (dose: 337.5 mg/kg/injection, schedule: Q07DX002 (ip), vehicle: water): 110 % of control

O=C(Cc1cccc2c(=O)cc(-c3ccccc3)oc12)OCCN1CCOCC1
T/C (dose: 100.0 mg/kg/injection, schedule: Q07DX002 (ip), vehicle: Klucel (hydroxypropylcellulose) (HPC)): 115 % of control | T/C (dose: 200.0 mg/kg/injection, schedule: Q07DX002 (ip), vehicle: Klucel (hydroxypropylcellulose) (HPC)): 92 % of control

Cc1ccc[c]([Hg][Cl])c1N=Nc1ccccc1
T/C (dose: 6.25 mg/kg/injection, schedule: Q07DX002 (ip), vehicle: saline with Tween-80): 69 % of control

COc1cc2cc(c1Cl)N(C)C(=O)C[C@H](OC(=O)[C@H](C)N(C)C(C)=O)[C@]1(C)O[C@H]1[C@H](C)[C@@H]1C[C@@](O)(NC(=O)O1)[C@H](OC)C=C/C=C(\C)C2
T/C (dose: 0.01 mg/kg/injection, schedule: Q07DX003 (ip), vehicle: Klucel (hydroxypropylcellulose) (HPC)): 99 % of control | T/C (dose: 0.03 mg/kg/injection, schedule: Q07DX003 (ip), vehicle: Klucel (hydroxypropylcellulose) (HPC)): 114 % of control | T/C (dose: 0.06 mg/kg/injection, schedule: Q07DX003 (ip), vehicle: Klucel (hydroxypropylcellulose) (HPC)): 84 % of control | T/C (dose: 0.12 mg/kg/injection, schedule: Q07DX003 (ip), vehicle: Klucel (hydroxypropylcellulose) (HPC)): 73 % of control | T/C (dose: 0.25 mg/kg/injection, schedule: Q07DX003 (ip), vehicle: Klucel (hydroxypropylcellulose) (HPC)): 164 % of control | T/C (dose: 0.5 mg/kg/injection, schedule: Q07DX003 (ip), vehicle: Klucel (hydroxypropylcellulose) (HPC)): 67 % of control | T/C (dose: 30.0 micrograms/kg/injection, schedule: Q07DX003 (ip), vehicle: Klucel (hydroxypropylcellulose) (HPC)): 116 % of control | T/C (dose: 125.0 micrograms/kg/injection, schedule: Q07DX003 (ip), vehicle: Klucel (hydroxypropylcellulose) (HPC)): 120 % of control | T/C (dose: 250.0 micrograms/kg/injection, schedule: Q07DX003 (ip), vehicle: Klucel (hydroxypropylcellulose) (HPC)): 90 % of control | T/C (dose: 500.0 micrograms/kg/injection, schedule: Q07DX003 (ip), vehicle: Klucel (hydroxypropylcellulose) (HPC)): 75 % of control | T/C (dose: 1000.0 micrograms/kg/injection, schedule: Q07DX003 (ip), vehicle: Klucel (hydroxypropylcellulose) (HPC)): 57 % of control

COC(OC(CO)C(O)S(=O)(=O)O)C(O)S(=O)(=O)O (stereo not drawn)
T/C [3]: 113 % of control | T/C (dose: 12.5 mg/kg/injection, schedule: Q07DX003 (ip), vehicle: saline): 123 % of control | T/C [8]: 108 % of control | T/C (dose: 25.0 mg/kg/injection, schedule: Q07DX003 (ip), vehicle: saline): 100 % of control | T/C [9]: 123 % of control and 105 % of control | T/C (dose: 50.0 mg/kg/injection, schedule: Q07DX003 (ip), vehicle: saline): 97 % of control | T/C [10]: 95 % of control and 105 % of control | T/C (dose: 100.0 mg/kg/injection, schedule: Q07DX003 (ip), vehicle: saline): 110 % of control | T/C [4]: 80 % of control and 105 % of control | T/C (dose: 200.0 mg/kg/injection, schedule: Q07DX003 (ip), vehicle: saline): 98 % of control | T/C (dose: 400.0 mg/kg/injection, schedule: Q07DX002 (ip), vehicle: saline): 85 % of control and 86 % of control | T/C (dose: 400.0 mg/kg/injection, schedule: Q07DX003 (ip), vehicle: saline): 50 % of control
